Data as given in patent US20180360767A1, “BIOCOMPATIBLE PARTICLES AND METHODS OF MAKING AND USE THEREOF” (priority 2015, published 2018).

How the values were obtained:
[1] = Pharmacokinetics, doxorubicin concentration in blood plasma after intravenous injection; conditions: mouse, 2 mg/kg
[2] = in vivo; conditions: mouse, iv, 2 mg/kg
[3] = tested on: doxorubicin-resistant HeLa cells; test: In vitro cytotoxicity on doxorubicin-resistant cells; assay type: cell-based; conditions: even at a concentration of 5 mg L^−1
Experimental: Next, the cytotoxicity of doxorubicin-loaded nanospheres towards HeLa cells was evaluated with 3-(4, 5-dimethylthiazol-2-yl)-2, 5-diphenyltetrazolium bromide (MTT) assay. HeLa cells (1×10^4 cells per well) were seeded in the 96-well plates. After culture for 24 h, the cells were exposed to the doxorubicin solution and doxorubicin-loaded liquid metal nanoparticles with different concentrations of doxorubicin for 24 h, followed by adding 20 μl of the MTT solution (5 mg mL^−1). After 4 h of incubation, the medium was removed, and the cells were mixed with 150 μl of dimethyl sulfoxide. The absorbance was measured at a test wavelength of 570 nm and a reference wavelength of 630 nm by a microplate reader (Infinite M200 PRO, Tecan).
Next, the in vitro cytotoxicity of doxorubicin loaded ligand-capped liquid metal nanoparticles towards doxorubicin-resistant HeLa cells was investigated.

Compound: COc1cccc2c1C(=O)c1c(O)c3c(c(O)c1C2=O)C[C@@](O)(C(=O)CO)C[C@@H]3O[C@H]1C[C@H](N)[C@H](O)[C@H](C)O1 [Doxorubicin]
- MRT [1]: 2.8 ± 0.61 h
- half-life [1]: 1.11 ± 0.02 h
- Cmax [2]: 1.45 ± 0.06 µg/mL
- cytotoxicity [3]: did not show any obvious cytotoxicity
